In publication PMC8286840, “Identifying SARS-CoV-2 antiviral compounds by screening for small molecule inhibitors of Nsp3 papain-like protease” (Biochemical Journal, 2021) one finds remaining activity data, which are given here for 29 compounds.

Where a name gives a salt, the structure may show the parent alone. Read-outs that look alike come from different tables or passages of the source.

Experiment [1] concerns the target T1, SARS-CoV-2 PLpro (nsp3 1564–1878) (Severe acute respiratory syndrome coronavirus 2, UniProt P0DTD1). Put plainly: biochemical. The arrangement: FRET-quenched peptide (Pro3) cleavage by PLpro, 10 min pre-incubation, slope over 20 min, normalised to no-compound control. Conditions: high concentration screen, read-out: % of control remaining.
In experiment [2] the target is T1, SARS-CoV-2 PLpro (nsp3 1564–1878). As to the kind of experiment: biochemical. The arrangement: FRET-quenched peptide (Pro3) cleavage by PLpro, 10 min pre-incubation, slope over 20 min, normalised to no-compound control. Conditions: low concentration screen, read-out: % of control remaining.

With `Nn1nnc2ccccc21` [1-Aminobenzotriazole], the remaining activity at 3.75 µM in experiment [1] (Well no.=253) came to 99%. In addition, the remaining activity at 1.25 µM in experiment [2] (Well no.=253) turned out to be 98.6%.

`NC1(C(=O)O)CC1` [1-Aminocyclopropanecarboxylic acid hydrochloride]: the remaining activity at 3.75 µM in experiment [1] (Well no.=341) was 102%. For the same compound, in experiment [2] (Well no.=341), the remaining activity at 1.25 µM was 100%.

`O=C1Cc2c([nH]c3ccc(Br)cc23)-c2ncccc2N1` [1-Azakenpaullone]: the remaining activity at 3.75 µM in experiment [1] (Well no.=2335) was determined as 97.1%. In experiment [2] (Well no.=2335), the remaining activity at 1.25 µM is 96.4%.

`OC[C@H]1NC[C@H](O)[C@@H](O)[C@@H]1O` [1-Deoxynojirimycin hydrochloride]: the remaining activity at 3.75 µM in experiment [1] (Well no.=586) worked out at 102%. In addition, in experiment [2] (Well no.=586), the remaining activity at 1.25 µM stood at 102%.

`CCCCCCCCCCCCCCCCOCC(CO)OC(C)=O` (centres unmarked) [1-Hexadecyl-2-O-acetyl-glycerol]: the remaining activity at 3.75 µM in experiment [1] (Well no.=4238) worked out at 98.7%. In addition, the remaining activity at 1.25 µM in experiment [2] (Well no.=4238) came out at 95.2%.

Turning to `CCCCCCCCCCCCCCCCOC[C@H](CO)OC` [1-Hexadecyl-2-O-methyl-glycerol], in experiment [1] (Well no.=4572), the remaining activity at 3.75 µM amounted to 99.2%. Further, the remaining activity at 1.25 µM in experiment [2] (Well no.=4572) is 97.5%.

With `CCCCCCCCCCCCCCCCOCC(COP(=O)([O-])OCC[N+](C)(C)C)OC` (centres unmarked) [1-Hexadecyl-2-methylglycero-3 PC], the remaining activity at 3.75 µM in experiment [1] (Well no.=4259) amounted to 92%. In addition, the remaining activity at 1.25 µM in experiment [2] (Well no.=4259) was 95.4%.

Take `Cn1cnc2c(ncn2[C@@H]2O[C@H](CO)[C@@H](O)[C@H]2O)c1=N` [1-Methyladenosine]: the remaining activity at 3.75 µM in experiment [1] (Well no.=7121) turned out to be 98.5%. Moreover, the remaining activity at 1.25 µM in experiment [2] (Well no.=7121) amounted to 102%.

`Cn1cnc(CCN)c1` [1-Methylhistamine dihydrochloride]: the remaining activity at 3.75 µM in experiment [1] (Well no.=928) is 103%. Also, the remaining activity at 1.25 µM in experiment [2] (Well no.=928) came to 101%.

As for `Cn1ccnc1` [1-Methylimidazole], the remaining activity at 3.75 µM in experiment [1] (Well no.=939) was 102%. Also, the remaining activity at 1.25 µM in experiment [2] (Well no.=939) is 101%.

For the compound `Cn1cnc2c(ncn2[C@@H]2O[C@H](CO)[C@@H](O)[C@H]2O)c1=O` [1-Methylinosine], the remaining activity at 3.75 µM in experiment [1] (Well no.=7167) was found to be 101%. Moreover, the remaining activity at 1.25 µM in experiment [2] (Well no.=7167) was 103%; in experiment [2] (Well no.=7858), 102%.

On to `CC(C)(C)n1nc(-c2cccc3ccccc23)c2c(N)ncnc21` [1-Naphthyl PP1 - 1-(1,1-Dimethylethyl)-3-(1-naphthalenyl)-1H-pyrazolo[3,4-d]pyrimidin-4-amine], for which the remaining activity at 3.75 µM in experiment [1] (Well no.=2674) was found to be 98.4%. Besides, the remaining activity at 1.25 µM in experiment [2] (Well no.=2674) was 98%.

As for `CCCCCCCC/C=C\CCCCCCCC(=O)OC[C@H](CO)OC(C)=O` [1-Oleoyl-2-acetyl-glycerol], the remaining activity at 3.75 µM in experiment [1] (Well no.=4480) amounted to 99.2%. Moreover, the remaining activity at 1.25 µM in experiment [2] (Well no.=4480) turned out to be 97.7%.

For `S=C(Nc1ccccc1)Nc1nccs1` [1-Phenyl-3-(2-thiazolyl)-2-thiourea], in experiment [1] (Well no.=858), the remaining activity at 3.75 µM is 96.6%. In addition, the remaining activity at 1.25 µM in experiment [2] (Well no.=858) amounted to 99.5%.

`NC(N)=NC(N)=Nc1ccccc1` [1-Phenylbiguanide]: the remaining activity at 3.75 µM in experiment [1] (Well no.=1263) was found to be 102%. Also, the remaining activity at 1.25 µM in experiment [2] (Well no.=1263) turned out to be 102%.

Take `CCCCC/C=C\C/C=C\C/C=C\C/C=C\CCCC(=O)O[C@@H](CO)COC(=O)CCCCCCCCCCCCCCCCC` [1-Stearoyl-2-arachidonoyl-glycerol]: the remaining activity at 3.75 µM in experiment [1] (Well no.=4482) stood at 96.2%. Further, the remaining activity at 1.25 µM in experiment [2] (Well no.=4482) stood at 95.9%.

For the compound `FC(F)(F)c1ccccc1-n1ccnc1` [1-[2-(Trifluoromethyl)phenyl]imidazole], the remaining activity at 3.75 µM in experiment [1] (Well no.=1533) is 90.7%. The remaining activity at 1.25 µM in experiment [2] (Well no.=1533) was found to be 89.9%.

As to `O=c1ccn([C@@H]2O[C@H](CO)[C@@H](O)[C@@H]2O)c(=O)[nH]1` [1-_beta-_D-_Arabinofuranosylurac_il], the remaining activity at 3.75 µM in experiment [1] (Well no.=8887) amounted to 94.3%. In addition, in experiment [2] (Well no.=8887), the remaining activity at 1.25 µM is 95.2%.

As for `C=CC(=O)N1C/C(=C\c2ccc([N+](=O)[O-])cc2)C(=O)/C(=C/c2ccc([N+](=O)[O-])cc2)C1` [1-acryloyl-3,5-bis((E)-4-nitrobenzylidene)piperidin-4-one], the remaining activity at 3.75 µM in experiment [1] (Well no.=6015) came to 99.9%. In experiment [2] (Well no.=6015), the remaining activity at 1.25 µM turned out to be 103%.

Turning to `COc1ccc2c(c1)c(CC(=O)O)c(C)n2C(=O)c1ccccc1` [1-benzoyl-5-methoxy-2-methylindole-3-acetic acid], the remaining activity at 3.75 µM in experiment [1] (Well no.=118) came out at 104%. The remaining activity at 1.25 µM in experiment [2] (Well no.=118) was 102%.

On to `O=C(O)c1cn(C2CC2)c2cc(N3C[C@@H]4C[C@H]3CN4)c(F)cc2c1=O` [1-cyclopropyl-7-[(1S,4S)-2,5-diazabicyclo[2.2.1]hept-2-yl]-6-fluoro-4-oxo-1,4-dihydro-3-quinolinecarboxylic acid methanesulfonate hydrate], for which the remaining activity at 3.75 µM in experiment [1] (Well no.=5598) is 86.5%. In experiment [2] (Well no.=5598), the remaining activity at 1.25 µM is 91.4%.

Turning to `Nc1ncnc2c1ncn2[C@H]1CC[C@@H](CO)O1` [2',3'-Dideoxyadenosine], the remaining activity at 3.75 µM in experiment [1] (Well no.=7998) was found to be 94.3%. Moreover, the remaining activity at 1.25 µM in experiment [2] (Well no.=7998) stood at 97.5%.

Take `Cc1cn([C@H]2C=C[C@@H](CO)O2)c(=O)[nH]c1=O` [2',3'-didehydro-3'-deoxythymidine]: in experiment [1] (Well no.=445), the remaining activity at 3.75 µM turned out to be 105%. The remaining activity at 1.25 µM in experiment [2] (Well no.=445) came to 104%.

With `Nc1ccn([C@H]2CC[C@@H](CO)O2)c(=O)n1` [2',3'-dideoxycytidine], the remaining activity at 3.75 µM in experiment [1] (Well no.=549) was 96.6%. Moreover, the remaining activity at 1.25 µM in experiment [2] (Well no.=549) was 98.3%.

With `Nc1ncnc2c1ncn2[C@H]1C[C@H](O)[C@@H](CO)O1` [2'-Deoxyadenosine monohydrate], the remaining activity at 3.75 µM in experiment [1] (Well no.=8885) is 90.7%. Besides, in experiment [2] (Well no.=8885), the remaining activity at 1.25 µM came to 95.3%.

In the case of `Nc1ncnc2c1ncn2[C@H]1C[C@H](O)[C@@H](CO)O1` [2'-Deoxyadenosine], the remaining activity at 3.75 µM in experiment [1] (Well no.=6691) is 105%; in experiment [1] (Well no.=7722), 101%. In addition, the remaining activity at 1.25 µM in experiment [2] (Well no.=6691) worked out at 106%; in experiment [2] (Well no.=7722) it was 95.5%.

With `Nc1ccn([C@H]2C[C@H](O)[C@@H](CO)O2)c(=O)n1` [2'-Deoxycytidine (hydrochloride)], in experiment [1] (Well no.=7806), the remaining activity at 3.75 µM was determined as 109%. Further, the remaining activity at 1.25 µM in experiment [2] (Well no.=7806) is 105%.

In the case of `Nc1ccn([C@H]2C[C@H](O)[C@@H](CO)O2)c(=O)n1` [2'-Deoxycytidine], the remaining activity at 3.75 µM in experiment [1] (Well no.=7451) was 93.7%; in experiment [1] (Well no.=7760), 98.4%. For the same compound, the remaining activity at 1.25 µM is 93.9% in experiment [2] (Well no.=7451) and 96.4% in experiment [2] (Well no.=7760).

As for `Nc1nc2c(ncn2[C@H]2C[C@H](O)[C@@H](CO)O2)c(=O)[nH]1` [2'-Deoxyguanosine], the remaining activity at 3.75 µM in experiment [1] (Well no.=6209) is 97.7%; in experiment [1] (Well no.=7772), 101%. For the same compound, the values for the remaining activity at 1.25 µM in experiment [2] (Well no.=6209) and in experiment [2] (Well no.=7772) were 102% and 99.2%, respectively.
